Experiments:
[1] = Temperature at which LMG solutions solidify (gel) on cooling; format: physicochemical
Procedure: The pH was then adjusted to 4-5 with HC1. Separate solutions were also prepared with increasing final concentrations of decyl glucoside: 0.0, 0.5, 1.0, 2.0, 3.0, 4.0, 5.0, 6.0. The compositions were brought into clear, colorless single phase solutions by heating to 60° C. The solutions were then cooled in a refrigerated chamber and the temperature at which gelling occurred was noted. As the concentration of decyl glucoside increased the temperature at which the LMG solution gelled decreased, forming a non-gelling glass at decyl glucoside concentrations of 5% and above. Thus the addition of decyl glucoside at concentrations of 5% or greater to a solution of 10% LMG and 10% glycerol prevents stable gel formation, even at temperatures as low as −20° C.
Composition A was prepared as described in the above table.
At room temperature the solution was viscous in consistency. The solution solidified at 15° C. […] Such phase transitions in a commercial product are unacceptable.

Physical state of solution ([1]; 0.2 wt % solution of LMG in water, 4° C.): loose jelly-like solution
Temperature at which hard gels form ([1]; LMG 5-15 wt % in water): about 35 °C
melting point: ~ 60 °C
SMILES: CCCCCCCCCCCC(=O)N(C)CC(O)C(O)C(O)C(O)CO (stereo not drawn) [LMG, Lauroyl N-Methyl Glucamide]
